Laboratory results reported in US11945822B2, “Pyrazolo-triazine and/or pyrazolo-pxrimidine derivatives as selective inhibitor of cyclin dependent kinase” (QURIENT CO., LTD., priority 2018, dated 2024).

What follows are molecules tested against T1, CDK1/Cyclin B (Homo sapiens, UniProt P06493) (assay: Enzymatic assay for CDK1 (FRET based LANCE Ultra kinase assay)). Conditions: read-out: CDK1 enzymatic activity (IC50 activity range).
T1 construct: purchased Invitrogen PR4768C
Assay type: biochemical
Outline: (§1)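 LANCE Ultra TR-FRET: ULight-MBP peptide (68 nM) with ATP at Km, […], 60 min at 23° C. EDTA plus Eu-anti-phospho-MBP added, another 60 min, then 665/615 nm emission read. Compounds tested as 8-dose 4-fold DMSO dilutions.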

T1 sequence (P06493 whole entry): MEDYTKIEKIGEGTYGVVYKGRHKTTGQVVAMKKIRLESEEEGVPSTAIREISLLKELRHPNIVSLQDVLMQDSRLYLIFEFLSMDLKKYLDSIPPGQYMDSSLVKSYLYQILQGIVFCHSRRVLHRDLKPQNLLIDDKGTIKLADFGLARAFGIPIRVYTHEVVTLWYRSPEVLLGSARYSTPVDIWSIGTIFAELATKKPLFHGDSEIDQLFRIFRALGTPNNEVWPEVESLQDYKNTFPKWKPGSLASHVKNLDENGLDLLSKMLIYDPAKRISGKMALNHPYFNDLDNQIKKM
T1 sequence (P14635 whole entry partner): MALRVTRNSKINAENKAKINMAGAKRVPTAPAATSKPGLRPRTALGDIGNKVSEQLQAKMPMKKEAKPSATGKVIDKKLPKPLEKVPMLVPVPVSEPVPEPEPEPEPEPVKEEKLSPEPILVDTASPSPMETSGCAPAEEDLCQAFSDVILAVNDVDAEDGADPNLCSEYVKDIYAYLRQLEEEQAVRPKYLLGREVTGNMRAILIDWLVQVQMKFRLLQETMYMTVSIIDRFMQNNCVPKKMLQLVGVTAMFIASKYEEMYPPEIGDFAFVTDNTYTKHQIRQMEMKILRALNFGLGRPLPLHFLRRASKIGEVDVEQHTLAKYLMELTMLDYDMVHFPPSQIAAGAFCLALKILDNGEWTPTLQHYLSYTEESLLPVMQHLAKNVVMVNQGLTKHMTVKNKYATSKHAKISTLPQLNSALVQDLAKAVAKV

Row | IC50 | SMILES
1 | > 1000 nM | CCN1CC[C@H](CNc2nc(NCc3ccccc3-c3ccc4ccccc4n3)n3ncc(C(C)C)c3n2)[C@@H](O)C1 [Compound 261]
2 | > 1000 nM | CCC(O)(CC)c1ccn(-c2cccc(Cl)c2CNc2nc(N3CCC(N)CC3)nc3c(C(C)C)cnn23)n1 [Compound 253]
3 | > 1000 nM | CC(C)c1cnn2c(NCc3ccccc3-c3ccc4ccccc4n3)nc(OC3CCC(O)CC3)nc12 (stereo not drawn) [Compound 269]

These molecules were tested against T2, CDK2/Cyclin A (Homo sapiens, UniProt P24941) (assay: Enzymatic assay for CDK2 (FRET based LANCE Ultra kinase assay)). Conditions: read-out: CDK2 enzymatic activity (IC50 activity range).
T2 construct: purchased Invitrogen PV6290
Assay type: biochemical
Outline: as §1

Row | IC50 | SMILES
4 | > 1000 nM | CCN1CC[C@H](CNc2nc(NCc3ccccc3-c3ccc4ccccc4n3)n3ncc(C(C)C)c3n2)[C@@H](O)C1 [Compound 261]
5 | > 1000 nM | CCC(O)(CC)c1ccn(-c2cccc(Cl)c2CNc2nc(N3CCC(N)CC3)nc3c(C(C)C)cnn23)n1 [Compound 253]
6 | > 1000 nM | CC(C)c1cnn2c(NCc3ccccc3-c3ccc4ccccc4n3)nc(OC3CCC(O)CC3)nc12 (stereo not drawn) [Compound 269]

These molecules were tested against T3, CDK5/p25 (Homo sapiens, UniProt Q00535) (assay: Enzymatic assay for CDK5 (FRET based LANCE Ultra kinase assay)). Conditions: read-out: CDK5 enzymatic activity (IC50 activity range).
T3 construct: purchased Invitrogen PR8543B
Assay type: biochemical
Outline: as §1

T3 sequence (Q00535 whole entry): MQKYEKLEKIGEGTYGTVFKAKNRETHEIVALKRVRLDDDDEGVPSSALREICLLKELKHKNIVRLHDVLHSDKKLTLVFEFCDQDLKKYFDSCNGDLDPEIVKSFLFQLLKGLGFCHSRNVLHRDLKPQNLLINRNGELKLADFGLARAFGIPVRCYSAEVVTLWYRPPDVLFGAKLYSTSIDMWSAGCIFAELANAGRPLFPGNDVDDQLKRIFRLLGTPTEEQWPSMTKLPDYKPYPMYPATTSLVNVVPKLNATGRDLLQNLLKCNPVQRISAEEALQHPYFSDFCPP
T3 sequence (Q15078 99-307 partner limits assumed): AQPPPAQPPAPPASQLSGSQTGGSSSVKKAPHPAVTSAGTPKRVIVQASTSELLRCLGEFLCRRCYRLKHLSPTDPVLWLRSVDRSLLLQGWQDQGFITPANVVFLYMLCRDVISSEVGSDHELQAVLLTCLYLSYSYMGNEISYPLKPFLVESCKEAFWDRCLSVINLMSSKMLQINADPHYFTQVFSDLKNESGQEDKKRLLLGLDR

Row | IC50 | SMILES
7 | > 1000 nM | CCN1CC[C@H](CNc2nc(NCc3ccccc3-c3ccc4ccccc4n3)n3ncc(C(C)C)c3n2)[C@@H](O)C1 [Compound 261]
8 | > 1000 nM | CCC(O)(CC)c1ccn(-c2cccc(Cl)c2CNc2nc(N3CCC(N)CC3)nc3c(C(C)C)cnn23)n1 [Compound 253]
9 | > 1000 nM | CC(C)c1cnn2c(NCc3ccccc3-c3ccc4ccccc4n3)nc(OC3CCC(O)CC3)nc12 (stereo not drawn) [Compound 269]

These molecules were tested against T4, CDK7/Cyclin H/MNAT1 (Homo sapiens, UniProt P50613) (assay: Enzymatic assay for CDK7 (FRET based LANCE Ultra kinase assay)). Conditions: CDK1/CDK7.
T4 construct: purchased Invitrogen PR6749B
Assay type: biochemical
Outline: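 LANCE Ultra TR-FRET kinase assay using a ULight-labeled peptide substrate and a Eu-labeled anti-phospho antibody, with ATP at its Km. Purified CDK/cyclin complex was added to compound after brief centrifugation.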

T4 sequence (P50613 whole entry): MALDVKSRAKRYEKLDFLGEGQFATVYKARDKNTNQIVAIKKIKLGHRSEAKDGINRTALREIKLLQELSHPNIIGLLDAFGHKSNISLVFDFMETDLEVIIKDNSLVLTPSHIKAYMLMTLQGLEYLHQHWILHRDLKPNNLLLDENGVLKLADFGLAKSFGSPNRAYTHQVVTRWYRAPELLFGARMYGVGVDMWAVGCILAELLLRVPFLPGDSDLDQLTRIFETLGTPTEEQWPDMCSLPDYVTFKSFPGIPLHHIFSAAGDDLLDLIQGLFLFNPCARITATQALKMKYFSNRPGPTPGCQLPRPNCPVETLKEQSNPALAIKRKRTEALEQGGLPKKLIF
T4 sequence (P51946 whole entry partner): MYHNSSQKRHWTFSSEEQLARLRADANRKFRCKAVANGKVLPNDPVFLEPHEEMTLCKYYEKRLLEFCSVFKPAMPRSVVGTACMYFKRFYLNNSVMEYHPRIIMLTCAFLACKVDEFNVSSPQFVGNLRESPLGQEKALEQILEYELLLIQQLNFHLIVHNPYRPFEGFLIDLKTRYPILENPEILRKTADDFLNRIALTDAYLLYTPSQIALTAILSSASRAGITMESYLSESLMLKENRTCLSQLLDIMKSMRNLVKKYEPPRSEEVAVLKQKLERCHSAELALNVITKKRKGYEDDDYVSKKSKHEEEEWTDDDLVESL
T4 sequence (P51948 whole entry partner): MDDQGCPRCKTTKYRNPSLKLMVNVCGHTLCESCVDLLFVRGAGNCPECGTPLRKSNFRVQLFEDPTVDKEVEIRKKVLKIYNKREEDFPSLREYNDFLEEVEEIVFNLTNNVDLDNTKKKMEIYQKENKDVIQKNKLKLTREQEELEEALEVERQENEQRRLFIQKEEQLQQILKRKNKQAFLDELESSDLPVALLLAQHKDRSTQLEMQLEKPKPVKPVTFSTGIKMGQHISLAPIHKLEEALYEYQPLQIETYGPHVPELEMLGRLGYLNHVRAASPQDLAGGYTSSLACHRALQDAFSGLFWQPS

Row | CDK1/CDK7: Selectivity of CDK7 inhibition over CDK1 inhibition | SMILES
10 | A (A=greater than 200 fold) | CCN1CC[C@H](CNc2nc(NCc3ccccc3-c3ccc4ccccc4n3)n3ncc(C(C)C)c3n2)[C@@H](O)C1 [Compound 261]
11 | A (A=greater than 200 fold) | CC(C)c1cnn2c(NCc3ccccc3-c3ccc4ccccc4n3)nc(OC3CCC(O)CC3)nc12 (stereo not drawn) [Compound 269]

Row | SMILES | CDK1/CDK7: Selectivity of CDK7 inhibition over CDK1 inhibition
12 | CCC(O)(CC)c1ccn(-c2cccc(Cl)c2CNc2nc(N3CCC(N)CC3)nc3c(C(C)C)cnn23)n1 [Compound 253] | B (B=less than 200 fold, but greater than 20 fold)

Same assay, conditions: CDK2/CDK7

Row | CDK2/CDK7: Selectivity of CDK7 inhibition over CDK2 inhibition | SMILES
13 | A (A=greater than 200 fold) | CCN1CC[C@H](CNc2nc(NCc3ccccc3-c3ccc4ccccc4n3)n3ncc(C(C)C)c3n2)[C@@H](O)C1 [Compound 261]
14 | A (A=greater than 200 fold) | CC(C)c1cnn2c(NCc3ccccc3-c3ccc4ccccc4n3)nc(OC3CCC(O)CC3)nc12 (stereo not drawn) [Compound 269]

Row | SMILES | CDK2/CDK7: Selectivity of CDK7 inhibition over CDK2 inhibition
15 | CCC(O)(CC)c1ccn(-c2cccc(Cl)c2CNc2nc(N3CCC(N)CC3)nc3c(C(C)C)cnn23)n1 [Compound 253] | B (B=less than 200 fold, but greater than 20 fold)

Same assay, conditions: CDK5/CDK7

Row | CDK5/CDK7: Selectivity of CDK7 inhibition over CDK5 inhibition | SMILES
16 | A (A=greater than 200 fold) | CCN1CC[C@H](CNc2nc(NCc3ccccc3-c3ccc4ccccc4n3)n3ncc(C(C)C)c3n2)[C@@H](O)C1 [Compound 261]
17 | A (A=greater than 200 fold) | CC(C)c1cnn2c(NCc3ccccc3-c3ccc4ccccc4n3)nc(OC3CCC(O)CC3)nc12 (stereo not drawn) [Compound 269]

Row | SMILES | CDK5/CDK7: Selectivity of CDK7 inhibition over CDK5 inhibition
18 | CCC(O)(CC)c1ccn(-c2cccc(Cl)c2CNc2nc(N3CCC(N)CC3)nc3c(C(C)C)cnn23)n1 [Compound 253] | B (B=less than 200 fold, but greater than 20 fold)

Same assay, conditions: read-out: CDK7 enzymatic activity (IC50 activity range)

Row | IC50 | SMILES
19 | < 100 nM | CCN1CC[C@H](CNc2nc(NCc3ccccc3-c3ccc4ccccc4n3)n3ncc(C(C)C)c3n2)[C@@H](O)C1 [Compound 261]
20 | 100 to 1000 nM | CCC(O)(CC)c1ccn(-c2cccc(Cl)c2CNc2nc(N3CCC(N)CC3)nc3c(C(C)C)cnn23)n1 [Compound 253]
21 | < 100 nM | CC(C)c1cnn2c(NCc3ccccc3-c3ccc4ccccc4n3)nc(OC3CCC(O)CC3)nc12 (stereo not drawn) [Compound 269]

What follows are molecules tested on H460 (assay: Cellular H460 viability assay (CellTiter-Glo, 72 hours)). Conditions: Homo sapiens, NCI-H460.
Assay type: cell-based
Outline: (§2)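 Cells plated in 96 wells and exposed to compound 72 h at 37 °C, 5% CO2, final DMSO below 0.1%, DMSO control. Viability by CellTiter-Glo luminescence, duplicate.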

Row | IC50 | SMILES
22 | < 1000 nM | CCN1CC[C@H](CNc2nc(NCc3ccccc3-c3ccc4ccccc4n3)n3ncc(C(C)C)c3n2)[C@@H](O)C1 [Compound 261]
23 | 1000 to 10000 nM | CCC(O)(CC)c1ccn(-c2cccc(Cl)c2CNc2nc(N3CCC(N)CC3)nc3c(C(C)C)cnn23)n1 [Compound 253]
24 | < 1000 nM | CC(C)c1cnn2c(NCc3ccccc3-c3ccc4ccccc4n3)nc(OC3CCC(O)CC3)nc12 (stereo not drawn) [Compound 269]

What follows are molecules tested on MV4-11 (assay: Cellular MV4-11 viability assay (CellTiter-Glo, 72 hours)). Conditions: Homo sapiens.
Assay type: cell-based
Outline: as §2

Row | IC50 | SMILES
25 | 1000 to 10000 nM | CCN1CC[C@H](CNc2nc(NCc3ccccc3-c3ccc4ccccc4n3)n3ncc(C(C)C)c3n2)[C@@H](O)C1 [Compound 261]
26 | 1000 to 10000 nM | CCC(O)(CC)c1ccn(-c2cccc(Cl)c2CNc2nc(N3CCC(N)CC3)nc3c(C(C)C)cnn23)n1 [Compound 253]
27 | 1000 to 10000 nM | CC(C)c1cnn2c(NCc3ccccc3-c3ccc4ccccc4n3)nc(OC3CCC(O)CC3)nc12 (stereo not drawn) [Compound 269]

These molecules were tested on A2780 (assay: Cellular A2780 viability assay (CellTiter-Glo, 72 hours)). Conditions: Homo sapiens.
Assay type: cell-based
Source text: Human T-cell acute lymphoblastic leukemia cell line, MOLT-4 (ATCC, Cat #CRL-1582), Human multiple myeloma cell line, RPMI-8226 (Invitrogen, Cat #22400-089) and MM.1S (ATCC, Cat #CRL-2974), NSCLC (Non-small cell lung cancer) cell line H460 (ATCC, Cat #HTB-177), Human colon colorectal carcinoma cell line HCT116 (ATCC, Cat #CCL-247), Human acute monocytic leukemia cell line MV4-11 (ATCC, Cat #CRL-9591), OVCAR-3 (ATCC, Cat #HTB-161) and A2780 (ECACC, Cat #93112519) were obtained from ATCC. Cells were grown in RPMI-1640 media (Invitrogen, Cat #22400-089) supplemented with 10% FBS (Invitrogen, Cat #10099141) and 1% penicillin/streptomycin (Invitrogen, Cat #15070063) and cultured at 37° C., 5% CO2 in a humidified chamber. All cell lines were routinely tested for mycoplasma.
The effect of the CDK7 inhibitor to inhibit the growth of target cancer cells was evaluated through the 72 hours time period of viability assay. Briefly, the candidate cell line ware plated in 96 well plate at the following density of cells respectively. 1×10^4 cells/well for MOLT-4, RPMI-8226, MV4-11 and MM.1S, 5×10^3 for H460, HCT116 and OVCAR-3 and IX 10^3 for A2780. After 24 hours, the cells were treated with various concentrations of the compound (ranging from 0.0015 uM to 10 uM). DMSO solvent without compound served as a control and final DMSO concentration less than 0.1%. After 72 hours of incubation at 37° C., 5% CO2 incubator, cells were analyzed for the viability using the CellTiter-Glo Luminescent Cell Viability Assay (Promega, Cat #G7570). All viability assays were performed in duplicate and Luminescence was read using an Envision (Perkin Elmer, USA). Data was analyzed using XLfit software.

Row | IC50 | SMILES
28 | ≤ 1000 nM | CCN1CC[C@H](CNc2nc(NCc3ccccc3-c3ccc4ccccc4n3)n3ncc(C(C)C)c3n2)[C@@H](O)C1 [Compound 261]
29 | 1000 to 10000 nM | CCC(O)(CC)c1ccn(-c2cccc(Cl)c2CNc2nc(N3CCC(N)CC3)nc3c(C(C)C)cnn23)n1 [Compound 253]
30 | ≤ 1000 nM | CC(C)c1cnn2c(NCc3ccccc3-c3ccc4ccccc4n3)nc(OC3CCC(O)CC3)nc12 (stereo not drawn) [Compound 269]
